According to patent US11512079B2, “Heterocycle substituted pyridine derivative antifungal agents” (Amplyx Pharmaceuticals, Inc., priority 2017, dated 2022):
In brackets after ≈: the same amount, converted by molar mass.

Assays:
Format in all cases: cell-based
Candida albicans 90028 = test: In vitro antifungal assay (Example IX), microdilution broth, MIC; details: minimum inhibitory concentration (≥50% inhibition), 35° C., 40-48 h, RPMI1640
Protocol: Measurement of antifungal activity: Antifungal activity of the compounds was evaluated in a microdilution broth assay as per Clinical and Laboratory Standard Institute methodology for yeast (for Candida and Cryptococcus) (1) and molds (for Aspergillus and Rhizomucor) (2). Candida albicans 90028, Aspergillus fumigatus MYA3626, Rhizomucor pusillus 46342 and Cryptococcus neoformans H99 strains were obtained from American Type Culture Collection (ATCC).
Preparation of Fungal Suspension. C. albicans 90028 and C. neoformans H99 strains were streaked from frozen stocks at −80° C. onto Sabouraud Dextrose Agar (SDA) plates. These were allowed to grow for 24 h (C. albicans) and 48 h (C. neoformans) at 35° C. before using them in the assay. 5-6 individual colonies were picked and diluted into sterile water to obtain a fungal suspension. The cell density of the suspension was determined and the culture diluted with RPMI1640 medium to obtain a fungal suspension of 2.5×10^3 cells/mL. The suspension was used in the MIC measurement as described below.
Preparation of Compound Stocks and Intermediate Dilutions: The compounds were weighed and DMSO was added to prepare a 10 mg/mL stock. The solutions were mixed by vortexing and sonication at 37° C. for 5-10 mins. The resulting solutions were sterile filtered using a PTFE filter, and aliquoted (12 μL or as needed) and stored at −20° C. Intermediate compound dilutions were prepared in sterile polypropylene tubes in 100% DMSO. The compound stock solution was first diluted in DMSO to obtain a concentration of […] to 0.19 μg/mL.
MIC/MEC Measurement: 99 μL 1 of the fungal suspension in RPMI1640 prepared as above was added to each well of a 96-well round bottom assay plate. 1 μL of the intermediate compound dilutions (200-0.19 μg/mL) were added to wells of the plate. This led to a 100-fold dilution of the intermediate dilutions resulting in a final compound concentration of 2-0.0019 μg/mL in the plate. 1 μL of DMSO was added to “No drug” control wells. The solutions were mixed by shaking on a plate shaker for 10 mins and plates incubated at 35° C. for 40-48 h (C. albicans, A. fumigatus, R. pusillus) and 72 h (Cryptococcus). […] This was validated by thorough mixing and reading at 600 nm on a microplate reader. The minimum concentration that led to shortening of hyphae as compared to hyphal growth in DMSO control wells was determined as the minimum effective concentration (MEC) for A. fumigatus and R. pusillus (as read for echinocandins). The use of the MIC and MEC endpoints against yeasts and molds, respectively has been described by Pfaller M A, Duncanson F, Messer S A, Moet G J, Jones R N, Castanheira M. Antimicrob Agents Chemother. 2011. 55(11):5155-8. In vitro activity of a novel broad-spectrum antifungal, E1210, tested against Aspergillus spp. determined by CLSI and EUCAST broth microdilution methods. Results are shown in Table 2, and the letters indicate the following ranges in μg/mL: […]

[1] = test system: Rhizomucor pusillus 46342; test: In vitro antifungal assay (Example IX), microdilution broth, MEC; details: minimum effective concentration (shortening of hyphae), 35° C., 40-48 h, RPMI1640
Protocol: (§1) Measurement of antifungal activity: […] Candida albicans 90028, Aspergillus fumigatus MYA3626, Rhizomucor pusillus 46342 and Cryptococcus neoformans […] strains were obtained from American Type Culture Collection (ATCC). […] (A. fumigatus) and 35° C. (R. pusillus). Water containing 1% Tween was directly added to the agar plate and gently agitated to wet and remove the Aspergillus conidia. For R. pusillus, water was added to the surface and gently massaged to wet and remove the spores. For both species, the conidia or spores and mycelial fragments were collected, followed by removal of mycelium, conidiophores and large clumps of conidia/spores. The resulting spore suspension was counted and diluted into RPMI1640 medium to adjust to a final suspension of 1-2×10^4 spores/mL. The suspension was used in the MEC measurement as described below. […] The compounds were weighed and DMSO was added to prepare a 10 mg/mL stock. The solutions were mixed by vortexing and sonication at 37° C. for 5-10 mins. The resulting solutions were sterile filtered using a PTFE filter, and aliquoted (12 μL or as needed) and stored at -20° C. Intermediate compound dilutions were prepared in sterile polypropylene tubes in 100% DMSO. […] This was validated by thorough mixing and reading at 600 nm on a microplate reader. The minimum concentration that led to shortening of hyphae as compared to hyphal growth in DMSO control wells was determined as the minimum effective concentration (MEC) for A. fumigatus and R. pusillus (as read for echinocandins). The use of the MIC and MEC endpoints against yeasts and molds, respectively has been described by Pfaller M A, Duncanson F, Messer S A, Moet G J, Jones […]. Antimicrob Agents Chemother. 2011. 55(11):5155-8. In vitro activity of a novel broad-spectrum antifungal, […], tested against Aspergillus spp. determined by CLSI and EUCAST broth microdilution methods. Results are shown in Table 2, and the letters indicate the following ranges in μg/mL: […]

[2] = test system: Aspergillus fumigatus MYA3626; test: as above; details: minimum effective concentration (shortening of hyphae), 35° C., 40-48 h, RPMI1640
Protocol: as §1

Nc1ncccc1-c1cc(Cc2ccc(CCl)cc2)no1 [B, 3-(3-(4-(chloromethyl)benzyl)isoxazol-5-yl)pyridin-2-amine]
MIC (Candida albicans 90028): > 1 µg/mL
minimal effective concentration [1]: > 1 µg/mL
minimal effective concentration [2]: 0.1 to 1 µg/mL

Nc1ncccc1-c1cc(Cc2ccc(O)cc2)no1 [C, 4-((5-(2-aminopyridin-3-yl)isoxazol-3-yl)methyl)phenol]
MIC (Candida albicans 90028): > 1 µg/mL
minimal effective concentration [1]: > 1 µg/mL
minimal effective concentration [2]: 0.1 to 1 µg/mL

Nc1ncccc1-c1cc(Cc2ccc(F)nc2)no1 [E, 3-(3-((6-fluoropyridin-3-yl)methyl)isoxazol-5-yl)pyridin-2-amine]
MIC (Candida albicans 90028): > 1 µg/mL
minimal effective concentration [1]: > 1 µg/mL
minimal effective concentration [2]: > 1 µg/mL

Nc1ncccc1-c1cc(Cc2ccc(CNc3nc4ccccc4[nH]3)cc2)no1 [Example 145, N-(4-((5-(2-aminopyridin-3-yl)isoxazol-3-yl)methyl)benzyl)-1H-benzo[d]imidazol-2-amine]
MIC (Candida albicans 90028): > 1 µg/mL
minimal effective concentration [1]: > 1 µg/mL
minimal effective concentration [2]: > 1 µg/mL

Nc1ncccc1-c1cc(Cc2cccc(OCCc3cccc(F)c3)n2)no1 [Example 147, 3-(3-((6-(3-fluorophenethoxy)pyridin-2-yl)methyl)isoxazol-5-yl)pyridin-2-amine]
MIC (Candida albicans 90028): > 1 µg/mL
minimal effective concentration [1]: > 1 µg/mL
minimal effective concentration [2]: > 1 µg/mL

Nc1ncccc1-c1cc(Cc2ccc(Cc3cccc(C(F)(F)F)n3)cc2)no1 [Example 151, 3-(3-(4-((6-(trifluoromethyl)pyridin-2-yl)methyl)benzyl)isoxazol-5-yl)pyridin-2-amine]
MIC (Candida albicans 90028): 0.1 to 1 µg/mL (≈ 0.244 to 2.44 µM)
minimal effective concentration [1]: 0.1 to 1 µg/mL
minimal effective concentration [2]: 0.1 to 1 µg/mL

Cn1ccc(Cc2ccc(Cc3cc(-c4cccnc4N)on3)cc2)n1 [Example 152, 3-(3-(4-((1-methyl-1H-pyrazol-3-yl)methyl)benzyl)isoxazol-5-yl)pyridin-2-amine]
MIC (Candida albicans 90028): 0.01 to 0.1 µg/mL (≈ 0.029 to 0.29 µM)
minimal effective concentration [1]: > 1 µg/mL
minimal effective concentration [2]: 0.01 to 0.1 µg/mL

Nc1ncccc1-c1cc(Cc2ccc(NCc3ccc(F)cc3)nc2)no1 [Example 153, 5-((5-(2-aminopyridin-3-yl)isoxazol-3-yl)methyl)-N-(4-fluorobenzyl)pyridin-2-amine]
MIC (Candida albicans 90028): 0.1 to 1 µg/mL (≈ 0.266 to 2.66 µM)
minimal effective concentration [1]: > 1 µg/mL
minimal effective concentration [2]: 0.01 to 0.1 µg/mL

Cc1ncsc1CCOc1ccc(Cc2cc(-c3cccnc3N)on2)cn1 [Example 155, 3-(3-((6-(2-(4-methylthiazol-5-yl)ethoxy)pyridin-3-yl)methyl)isoxazol-5-yl)pyridin-2-amine]
MIC (Candida albicans 90028): > 1 µg/mL
minimal effective concentration [1]: > 1 µg/mL
minimal effective concentration [2]: > 1 µg/mL

Nc1ncccc1-c1cc(Cc2ccc(OCCc3cc(F)c(F)cc3F)nc2)no1 [Example 158, 3-(3-((6-(2,4,5-trifluorophenethoxy)pyridin-3-yl)methyl)isoxazol-5-yl)pyridin-2-amine]
MIC (Candida albicans 90028): 0.1 to 1 µg/mL (≈ 0.235 to 2.35 µM)
minimal effective concentration [1]: > 1 µg/mL
minimal effective concentration [2]: 0.1 to 1 µg/mL

Nc1ncccc1-c1cc(Cc2ccc(OCCc3c(F)cccc3Cl)nc2)no1 [Example 159, 3-(3-((6-(2-chloro-6-fluorophenethoxy)pyridin-3-yl)methyl)isoxazol-5-yl)pyridin-2-amine]
MIC (Candida albicans 90028): 0.1 to 1 µg/mL (≈ 0.235 to 2.35 µM)
minimal effective concentration [1]: > 1 µg/mL
minimal effective concentration [2]: 0.1 to 1 µg/mL

Nc1ncccc1-c1cc(Cc2ccc(OCc3ncccc3F)nc2)no1 [Example 162, 3-(3-((6-((3-fluoropyridin-2-yl)methoxy)pyridin-3-yl)methyl)isoxazol-5-yl)pyridin-2-amine]
MIC (Candida albicans 90028): 0.01 to 0.1 µg/mL (≈ 0.0265 to 0.265 µM)
minimal effective concentration [1]: > 1 µg/mL
minimal effective concentration [2]: 0.1 to 1 µg/mL

CC(C)(COc1ccc(Cc2cc(-c3cccnc3N)on2)cn1)c1ccccc1 [Example 163, 3-(3-((6-(2-methyl-2-phenylpropoxy)pyridin-3-yl)methyl)isoxazol-5-yl)pyridin-2-amine]
MIC (Candida albicans 90028): > 1 µg/mL
minimal effective concentration [1]: 0.1 to 1 µg/mL
minimal effective concentration [2]: 0.1 to 1 µg/mL

Nc1ncccc1-c1cc(Cc2ccc(OCc3cccc4ccccc34)nc2)no1 [Example 164, 3-(3-((6-(naphthalen-1-ylmethoxy)pyridin-3-yl)methyl)isoxazol-5-yl)pyridin-2-amine]
MIC (Candida albicans 90028): > 1 µg/mL
minimal effective concentration [1]: > 1 µg/mL
minimal effective concentration [2]: 0.1 to 1 µg/mL

CC(C)=CCOc1ccc(Cc2cc(-c3cccnc3N)on2)cn1 [Example 166, 3-(3-((6-((3-methylbut-2-en-1-yl)oxy)pyridin-3-yl)methyl)isoxazol-5-yl)pyridin-2-amine]
MIC (Candida albicans 90028): 0.1 to 1 µg/mL (≈ 0.297 to 2.97 µM)
minimal effective concentration [1]: 0.1 to 1 µg/mL
minimal effective concentration [2]: 0.01 to 0.1 µg/mL

Nc1ncccc1-c1cc(Cc2ccc(CNc3cc(F)cc(F)c3)cc2)no1 [Example 167, 3-(3-(4-(((3,5-difluorophenyl)amino)methyl)benzyl)isoxazol-5-yl)pyridin-2-amine]
MIC (Candida albicans 90028): 0.1 to 1 µg/mL (≈ 0.255 to 2.55 µM)
minimal effective concentration [1]: 0.1 to 1 µg/mL
minimal effective concentration [2]: 0.01 to 0.1 µg/mL

Nc1ncccc1-c1cc(Cc2ccc(Cn3ncc4ccccc43)cc2)no1 [Example 170, 3-(3-(4-((1H-indazol-1-yl)methyl)benzyl)isoxazol-5-yl)pyridin-2-amine]
MIC (Candida albicans 90028): 0.1 to 1 µg/mL (≈ 0.262 to 2.62 µM)
minimal effective concentration [1]: 0.1 to 1 µg/mL
minimal effective concentration [2]: 0.1 to 1 µg/mL

Nc1ncccc1-c1cc(Cc2ccc(Cn3cc4ccccc4n3)cc2)no1 [Example 171, 3-(3-(4-((2H-indazol-2-yl)methyl)benzyl)isoxazol-5-yl)pyridin-2-amine]
MIC (Candida albicans 90028): 0.01 to 0.1 µg/mL (≈ 0.0262 to 0.262 µM)
minimal effective concentration [1]: 0.1 to 1 µg/mL
minimal effective concentration [2]: 0.1 to 1 µg/mL

Nc1ncccc1-c1cnn(Cc2ccc(Oc3ccccc3)nc2)c1 [compound 63, 3-(1-((6-phenoxypyridin-3-yl)methyl)-1H-pyrazol-4-yl)pyridin-2-amine]
MIC (Candida albicans 90028): 0.1 to 1 µg/mL (≈ 0.291 to 2.91 µM)
minimal effective concentration [1]: > 1 µg/mL

c1ccc(Oc2ccc(Cn3cc(-c4cccnc4)cn3)cn2)cc1 [compound 64, 2-phenoxy-5-((4-(pyridin-3-yl)-1H-pyrazol-1-yl)methyl)pyridine]
MIC (Candida albicans 90028): 0.1 to 1 µg/mL (≈ 0.305 to 3.05 µM)
minimal effective concentration [1]: > 1 µg/mL

Nc1ncccc1-c1cc(Cc2ccc(OCCc3cccc(F)c3)nc2)no1 [compound 91, 3-(3-((6-(3-fluorophenethoxy)pyridin-3-yl)methyl)isoxazol-5-yl)pyridin-2-amine]
minimal effective concentration [1]: > 1 µg/mL

Nc1ncccc1-c1cc(Cc2ccc(OCc3cc(Cl)ccn3)nc2)no1 [compound 92, 3-(3-((6-((4-chloropyridin-2-yl)methoxy)pyridin-3-yl)methyl)isoxazol-5-yl)pyridin-2-amine]
minimal effective concentration [1]: 0.1 to 1 µg/mL

Nc1ncccc1-c1cc(Cc2ccc(CNc3nc(=O)[nH]cc3F)cc2)no1 [compound 232, 4-((4-((5-(2-aminopyridin-3-yl)isoxazol-3-yl)methyl)benzyl)amino)-5-fluoropyrimidin-2(1H)-one]
MIC (Candida albicans 90028): > 1 µg/mL
minimal effective concentration [2]: > 1 µg/mL
